Test: Pharmacokinetics after oral gavage in mice
Conditions: 10 mg/kg
Description: Concentrations of drugs and lipids were simultaneously quantified by a ACQUITY UPLC H-Class System (Waters, Milford, MA)^15. The mobile phase was composed of solvent A: 0.1% trifluoroacetic acid (TFA) in water and solvent B: 0.1% TFA in methanol. […] Concentrations of drugs and lipids were measured by integrating the peak area under the curve and compared to the standard curves. For plasma CQ quantitation, a Waters QDa mass spectrometry detector was used. Ionization was carried out at 250° C.
MLV-CQ drug formulation of the present invention or free CQ (dissolved in saline) was administered through oral gavage to mice at 10 mg CQ/kg (50 mg lipid/kg). […] Plasma was isolated by centrifugation at 4° C. for 10 min at 10,000 g. Forty-five L of plasma was mixed with 300 μL ethanol, vortexed for 30 s, placed on ice for 30 min, and centrifuged twice at 12,500 rpm for 5 min. The supernatant (280 μL) was collected, lyophilized, and reconstituted in 45 μL ethanol. Ten L of the sample was then injected into the UPLC to measure CQ concentration. Pharmacokinetics parameters and AUC were analyzed using PK solver^16 and GraphPad Prisim version 8.0 (GraphPad Software, San Diego, CA, USA), respectively.

CCN(CC)CCCC(C)Nc1ccnc2cc(Cl)ccc12 (stereo not shown) [CQ solution, chloroquine diphosphate]
CQ in plasma at 24 h: completely eliminated

— patent US20260256694A1, “Multilamellar Vesicle Drug Formulation” (Nanostar Pharmaceuticals Ltd., priority 2022, published 2026)
